GI50 and TGI data for 10 compounds are collected here from PubChem BioAssay (NCI).

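Values below derive from 48-hour exposures of cells grown in 96-well plates, with endpoints linearly interpolated between the two concentrations bracketing the appropriate inhibition level. GI50: concentration for 50% inhibition of growth. TGI is the concentration that stops growth completely.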

Some test systems named below: HCT-116 colon; HT29 colon; MCF7 breast; NCI-H460 lung; NCI/ADR-RES ovarian; RXF 393 renal; SK-MEL-5 melanoma; SK-OV-3 ovarian; UACC-62 melanoma; EKVX NSCLC.
What all share (assay): NCI tumour cell line growth inhibition, 48 h

Regarding `O=C1/C(=C/c2ccc(Cl)cc2)CN(Cc2cn(CCNc3ccnc4cc(Cl)ccc34)nn2)C/C1=C\c1ccc(Cl)cc1`, the GI50 is 0.203 µM in the assay on HCT-116 colon; 0.231 µM in the assay with HT29 colon; 0.376 µM in the assay with MCF7 breast; 0.247 µM with NCI-H460 lung; 0.406 µM with NCI/ADR-RES ovarian; 0.201 µM in the assay on RXF 393 renal. For the same compound, the GI50 in the assay on SK-MEL-5 melanoma was 0.807 µM; with SK-OV-3 ovarian it was 1.03 µM; in the assay on UACC-62 melanoma it was 0.528 µM. For the same compound, the TGI in the assay on HCT-116 colon is 0.436 µM; with HT29 colon it was 0.489 µM; in the assay with MCF7 breast it was 1.37 µM; in the assay with NCI-H460 lung, 0.602 µM; in the assay on NCI/ADR-RES ovarian, 2.24 µM; with RXF 393 renal it was 0.416 µM. The figures for the TGI in the assay on SK-MEL-5 melanoma, in the assay with SK-OV-3 ovarian and in the assay on UACC-62 melanoma were 2.08 µM, 2.38 µM and 1.92 µM, respectively.
For `CCN(CC)CCCNc1nc2ccccc2c2c(=O)c3cc(Cl)ccc3sc12`, the GI50 in the assay with EKVX NSCLC is 3.74 µM; in the assay on HCT-116 colon it was 1.73 µM; with HT29 colon, 1.9 µM; in the assay on MCF7 breast, 1.32 µM; with NCI-H460 lung, 1.7 µM; in the assay with NCI/ADR-RES ovarian, 2.04 µM. For the same compound, the GI50 in the assay on RXF 393 renal is 2.68 µM; in the assay on SK-MEL-5 melanoma, 3.11 µM; in the assay on UACC-62 melanoma, 1.76 µM. The TGI in the assay on EKVX NSCLC was 17.3 µM; in the assay on HCT-116 colon, 3.22 µM; in the assay with HT29 colon, 3.98 µM; in the assay with MCF7 breast, 2.91 µM; in the assay on NCI-H460 lung, 3.36 µM; with NCI/ADR-RES ovarian it was 4.99 µM. Further, the TGI with RXF 393 renal is 10.8 µM; in the assay with SK-MEL-5 melanoma, 11.3 µM; with UACC-62 melanoma, 3.39 µM.
For `Cc1ccc([N+](=O)[O-])cc1NC(=O)C(=O)Cc1cc(=O)oc2cc(O)ccc12`, the TGI in the assay with EKVX NSCLC is above 100 µM; with HCT-116 colon, 47.5 µM; in the assay on HT29 colon it was above 100 µM; in the assay with NCI-H460 lung it was above 100 µM; with RXF 393 renal, above 100 µM; in the assay on SK-MEL-5 melanoma it was above 100 µM. For the same compound, the TGI in the assay on SK-OV-3 ovarian and with UACC-62 melanoma was above 100 µM throughout.
With `Oc1ccccc1Nc1nc2ccccc2c2occc12`, the GI50 in the assay on EKVX NSCLC is 11.3 µM; in the assay on HCT-116 colon it was 14.3 µM; with MCF7 breast, 25.2 µM; in the assay with NCI-H460 lung, 14.1 µM; with SK-MEL-5 melanoma, 6.1 µM; with SK-OV-3 ovarian, 11.1 µM. Besides, the GI50 with UACC-62 melanoma was 10.3 µM. Besides, the TGI amounted to 26.2 µM in the assay with EKVX NSCLC; 27.4 µM in the assay with HCT-116 colon; 51.8 µM in the assay with MCF7 breast; 27.6 µM with NCI-H460 lung; 19.4 µM in the assay on SK-MEL-5 melanoma; 25.2 µM in the assay with SK-OV-3 ovarian. This compound returned a TGI in the assay with UACC-62 melanoma of 21.9 µM.
On to `O=C1c2cccc3cccc(c23)C(=O)N1CCCCN1CCN(CCCCOc2ccc(-c3nc4ccc(N5CCOCC5)cc4[nH]3)cc2)CC1`, for which the GI50 with EKVX NSCLC, with HCT-116 colon, with HT29 colon, in the assay with MCF7 breast, in the assay with NCI-H460 lung and in the assay on NCI/ADR-RES ovarian was above 100 µM each time. For the same compound, the GI50 in the assay on SK-MEL-5 melanoma is 9.1 µM; in the assay on SK-OV-3 ovarian, above 100 µM; in the assay with UACC-62 melanoma, above 100 µM. Also, the TGI in the assay with EKVX NSCLC, in the assay with HCT-116 colon, with HT29 colon, with MCF7 breast, with NCI-H460 lung and with NCI/ADR-RES ovarian was above 100 µM in each case. The TGI with SK-MEL-5 melanoma, in the assay on SK-OV-3 ovarian and in the assay with UACC-62 melanoma was above 100 µM throughout.
Consider `COc1ccc(/C(=N\O)c2cc(OC)c(OC)c(OC)c2)c(OC)c1N`, for which the GI50 in the assay on EKVX NSCLC is 5.96 µM; in the assay on HCT-116 colon it was 2.82 µM; with HT29 colon, 3.4 µM; in the assay with MCF7 breast it was 2.46 µM; in the assay on NCI-H460 lung, 3.59 µM; with RXF 393 renal, 2.79 µM. The GI50 is 5.32 µM with SK-MEL-5 melanoma and 3.82 µM in the assay with SK-OV-3 ovarian. The TGI with EKVX NSCLC, in the assay with HCT-116 colon, with HT29 colon, with MCF7 breast, with NCI-H460 lung and in the assay on RXF 393 renal was above 100 µM throughout. Also, the TGI with SK-MEL-5 melanoma and in the assay with SK-OV-3 ovarian was above 100 µM throughout.
Turning to `Cc1cc(NS(=O)(=O)c2ccc(NC(=O)c3cccc4cc5ccccc5nc34)cc2)no1`, the TGI in the assay on EKVX NSCLC was 90.9 µM; in the assay on HCT-116 colon it was 19.6 µM; with HT29 colon, above 100 µM; in the assay on NCI-H460 lung, 72.2 µM; in the assay with RXF 393 renal, 29.1 µM; with SK-MEL-5 melanoma, 30.3 µM. Also, the results for the TGI in the assay on SK-OV-3 ovarian and with UACC-62 melanoma were above 100 µM and 48.5 µM, respectively.
In the case of `COC(=O)c1oc2c(O)c(OC)c(Br)cc2c1C`, the GI50 is 23.8 µM in the assay with EKVX NSCLC; 15.7 µM in the assay with HT29 colon; 27.1 µM with MCF7 breast; 64 µM in the assay with NCI-H460 lung; 28.6 µM with RXF 393 renal; 22.2 µM with SK-MEL-5 melanoma. Also, the GI50 in the assay on UACC-62 melanoma was 14.7 µM. Moreover, the TGI was 49.1 µM in the assay with EKVX NSCLC; 30.4 µM in the assay with HT29 colon; above 100 µM in the assay on MCF7 breast; above 100 µM in the assay with NCI-H460 lung; 67.1 µM in the assay on RXF 393 renal; 43.5 µM in the assay on SK-MEL-5 melanoma. Moreover, in the assay with UACC-62 melanoma, the TGI amounted to 30.7 µM.
Regarding `COc1cc2c(cc1OCCCCCn1c(-c3ccco3)nc3ccccc31)N=C[C@@H]1CCCN1C2=O`, the GI50 was below 0.0115 µM with EKVX NSCLC; below 0.01 µM in the assay on HCT-116 colon; below 0.01 µM with HT29 colon; below 0.01 µM in the assay on MCF7 breast; below 0.01 µM in the assay on NCI-H460 lung; 0.295 µM with NCI/ADR-RES ovarian. Also, the GI50 with SK-MEL-5 melanoma, in the assay on SK-OV-3 ovarian and with UACC-62 melanoma was below 0.01 µM each time. The TGI was 1.59 µM in the assay on EKVX NSCLC; 16.1 µM in the assay on HCT-116 colon; above 100 µM in the assay with HT29 colon; 19 µM in the assay with MCF7 breast; 14.3 µM in the assay on NCI-H460 lung; below 0.01 µM in the assay on SK-MEL-5 melanoma. In the assay with UACC-62 melanoma, this compound returned a TGI below 0.0106 µM.
For the compound `CCCCCCCCCCCCSC(=NC)NC`, the GI50 was 3.71 µM in the assay on EKVX NSCLC; 2.06 µM with HT29 colon; 1.84 µM with NCI-H460 lung; 2.06 µM in the assay with NCI/ADR-RES ovarian; 1.89 µM in the assay with RXF 393 renal; 1.48 µM with SK-MEL-5 melanoma. Also, the values for the GI50 in the assay with SK-OV-3 ovarian and in the assay with UACC-62 melanoma were 4.26 µM and 1.68 µM, respectively. The TGI with EKVX NSCLC was determined as 17.6 µM; in the assay on HT29 colon, 9.33 µM; in the assay on NCI-H460 lung, 3.52 µM; with NCI/ADR-RES ovarian it was 4.53 µM; in the assay on RXF 393 renal it was 4.15 µM; in the assay on SK-MEL-5 melanoma, 2.85 µM. For the same compound, the TGI with SK-OV-3 ovarian worked out at 19 µM; in the assay with UACC-62 melanoma, 3.21 µM.
